Test: Binding affinity to beta cyclodextrin

Structure (SMILES) | log Ks
CN1C(=O)NC(=O)C(C)(C2=CCCCC2)C1=O (stereo not given) [HEXOBARBITAL] | 3.08
CCc1ccccc1 [ETHYLBENZENE] | 2.59
CN1CCN=C(c2ccccc2)c2cc(Cl)ccc21 [MEDAZEPAM] | 2.4
Nc1ccccc1 [ANILINE] | 1.6
CCC(=O)c1ccc(O)cc1 [PAROXYPROPIONE] | 2.63
C[C@@H]1C[C@H]2[C@@H]3CCC4=CC(=O)C=C[C@]4(C)[C@@]3(F)[C@@H](O)C[C@]2(C)[C@@]1(O)C(=O)CO [DEXAMETHASONE] | 3.65
COc1cccc(O)c1 [1-hydroxy-3-methoxybenzene] | 2.11
Nc1ccc(S(=O)(=O)Nc2ncccn2)cc1 [SULFADIAZINE] | 2.52
C[C@]12C=CC(=O)C=C1CC[C@H]1[C@@H]3C[C@@H](O)[C@](O)(C(=O)CO)[C@@]3(C)C[C@H](O)[C@@]12F [TRIAMCINOLONE] | 3.37
CCCCOC(=O)c1ccc(N)cc1 [BUTAMBEN] | 3.19
Cc1ccc(/C=C/C(=O)O)cc1 | 2.65
CN(C)c1ccccc1 | 2.36
CCCC(=O)O[C@]1(C(=O)CO)CC[C@H]2[C@@H]3CCC4=CC(=O)CC[C@]4(C)[C@H]3[C@@H](O)C[C@@]21C [HYDROCORTISONE BUTYRATE] | 3.23
CCCc1ccc(OC(C)=O)cc1 | 3.15
OC1CCCCC1 [CYCLOHEXANOL] | 2.67
CCCCCc1ccc(O)cc1 | 4.19
CCCCCCC(C)O (stereo not given) | 3.13
Oc1ccc(O)cc1 [HYDROQUINONE] | 2.05
CCCCCO [1-PENTANOL] | 1.8
Oc1cccc(Cl)c1 | 2.28
ClC(Cl)(Cl)Cl [CARBON TETRACHLORIDE] | 2.2
Nc1ccc(S(=O)(=O)Nc2ccnn2-c2ccccc2)cc1 [SULFAPHENAZOLE] | 2.35
O=[N+]([O-])c1ccc(O)cc1 [P-NITROPHENOL] | 2.39

Structure (SMILES) | log Ks
OCCCCCO [1,5-PENTANEDIOL] | 1.22
O=[N+]([O-])c1ccccc1 [NITROBENZENE] | 2.04
CC(=O)Oc1cccc(Br)c1 | 2.67
OC1CCCCCCC1 [CYCLOOCTANOL] | 3.3
CCCC(C)O (stereo not given) [2-PENTANOL] | 1.49
Nc1ccc(-c2ccc(N)cc2)cc1 [BENZIDINE] | 3.35
c1ccc2c(c1)Cc1ccccc1O2 [XANTHENE] | 2.71
CCC(=O)c1cccc(O)c1 | 2.61
CC1(C)O[C@@H]2C[C@H]3[C@@H]4C[C@H](F)C5=CC(=O)C=C[C@]5(C)[C@@]4(F)[C@@H](O)C[C@]3(C)[C@]2(C(=O)CO)O1 [FLUOCINOLONE ACETONIDE] | 3.48
Cc1cccc(N(C)C(=S)Oc2ccc3ccccc3c2)c1 [TOLNAFTATE] | 3.83
Oc1cccc(F)c1 | 1.7
CCOC(=O)c1ccccc1 [ETHYL BENZOATE] | 2.73
Oc1ccc(I)cc1 | 2.98
O=[N+]([O-])c1ccc(Cl)cc1 | 2.15
c1ccc2sccc2c1 [BENZOTHIOPHENE] | 3.23
Cc1noc(NS(=O)(=O)c2ccc(N)cc2)c1C [SULFISOXAZOLE] | 2.32
CC(=O)Oc1cccc(C(C)C)c1 | 3.36
Cc1ccc(Cl)c(Nc2ccccc2C(=O)O)c1Cl [MECLOFENAMIC ACID] | 2.67
COC(=O)c1ccccc1 [METHYL BENZOATE] | 2.5
CCCCNC(=O)NS(=O)(=O)c1ccc(N)cc1 [CARBUTAMIDE] | 2.29
OCCCCO [1,4-BUTANEDIOL] | 0.64
OCCCO [1,3-PROPANEDIOL] | 0.67
CCNc1ccccc1 | 2.34

Structure (SMILES) | log Ks
CC(=O)S[C@@H]1CC2=CC(=O)CC[C@]2(C)[C@H]2CC[C@@]3(C)[C@@H](CC[C@@]34CCC(=O)O4)[C@H]12 [SPIRONOLACTONE] | 4.44
CC(=O)c1ccccc1 [ACETOPHENONE] | 2.27
CC(C)=O [ACETONE] | 0.42
CCC1(C2=CCCCC2)C(=O)NC(=O)NC1=O [CYCLOBARBITAL] | 2.71
Oc1cc(Br)cc(Br)c1 | 2.56
Cc1ccc(O)cc1 [p-CRESOL] | 2.4
CNc1ccccc1 | 2.12
CC(C(=O)O)c1cccc(C(=O)c2ccccc2)c1 (stereo not given) [KETOPROFEN] | 2.85
CCC1(c2ccccc2)C(=O)NC(=O)NC1=O [PHENOBARBITAL] | 3.22
Nc1ccc(S(=O)(=O)Nc2ccccn2)cc1 [SULFAPYRIDINE] | 2.7
CC(C)c1cccc(O)c1 | 3.44
CCCCc1cccc(OC(C)=O)c1 | 3.66
OC1CCCC1 [CYCLOPENTANOL] | 2.08
C[C@H](CCC(=O)O)[C@H]1CC[C@H]2[C@@H]3[C@@H](O)C[C@@H]4C[C@H](O)CC[C@]4(C)[C@H]3CC[C@]12C [URSODIOL] | 4.51
COc1ccc(OC(C)=O)cc1 | 2.45
CCCCCCCO [1-HEPTANOL] | 2.85
CC(C)(C)O [TERT-BUTANOL] | 1.68
CC(=O)Oc1ccc(F)cc1 | 2.11
C[C@@H]1C[C@H]2[C@@H]3C[C@H](F)C4=CC(=O)C=C[C@]4(C)[C@H]3[C@@H](O)C[C@]2(C)[C@@]1(O)C(=O)CO [PARAMETHASONE] | 3.4
CC(C)(C)CO | 2.71
CCC(O)CC [3-PENTANOL] | 1.35
Nc1ccc([N+](=O)[O-])cc1 [4-NITROANILINE] | 2.48
c1ccc(Cn2ccnc2)cc1 [BENZYLIMIDAZOLE] | 2.61

Structure (SMILES) | log Ks
CCc1ccc(OC(C)=O)cc1 | 2.83
CCCC(C)(C)O | 1.99
CCOC(=O)c1ccc(O)cc1 [ETHYLPARABEN] | 3.01
CC(C)CO [ISOBUTANOL] | 1.62
CC(=O)c1cccc(O)c1 | 2.06
CO [METHYL ALCOHOL] | -0.49
c1ccc2c(c1)cnc1ccccc12 [PHENANTHRIDINE] | 2.57
C[C@H](CCC(=O)O)[C@H]1CC[C@H]2[C@@H]3C(=O)C[C@@H]4CC(=O)CC[C@]4(C)[C@H]3CC(=O)[C@]12C [DEHYDROCHOLIC ACID] | 3.38
COc1ccccc1 [ANISOLE] | 2.32
c1ccc2nc3ccccc3cc2c1 [ACRIDINE] | 2.33
CCC(C)c1cccc(O)c1 (stereo not given) | 4.06
Fc1ccccc1 [FLUOROBENZENE] | 1.96
O=C(O)CC12CC3CC(CC(C3)C1)C2 | 4.32
Brc1ccccc1 [BROMOBENZENE] | 2.5
CC(=O)Oc1ccc(Br)cc1 | 2.68
Ic1ccccc1 [IODOBENZENE] | 2.93
CCCOC/C(=N\c1ccc(Cl)cc1C(F)(F)F)n1ccnc1 [TRIFLUMIZOLE] | 2.66
CC(=O)OCC(=O)[C@@]1(O)CC[C@H]2[C@@H]3CCC4=CC(=O)CC[C@]4(C)[C@H]3[C@@H](O)C[C@@]21C [HYDROCORTISONE ACETATE] | 3.51
C1CCOC1 [TETRAHYDROFURAN] | 1.47
CCCC(C)C1(CC)C(=O)NC(=S)NC1=O (stereo not given) [THIOPENTAL] | 3.28
O=C(O)Cc1ccccc1 [PHENYLACETIC ACID] | 2.1

From ChEMBL document CHEMBL1140846, “Convenient QSAR model for predicting the complexation of structurally diverse compounds with beta-cyclodextrins” (Bioorg Med Chem, 2009)
